Source: the NIST ThermoML archive (doi:10.1016/j.jct.2018.12.019)

Experiments:
[1] = 98 kPa, Liquid; for speed of sound: Frequency=3 MHz, Single path-length method; for mass density: Vibrating tube method
[2] = xn = mol fraction of the nth substance listed; conditions: 98 kPa, Liquid, x2 = 0; for speed of sound: Frequency=3 MHz, Single path-length method; for mass density: Vibrating tube method
[3] = excess molar enthalpy (molar enthalpy of mixing); xn = mol fraction of the nth substance listed; conditions: 298.15 K; 98 kPa; Liquid; Calvet calorimetry; x2 = 0

Cn1ccnc1 [1-methylimidazole]
[1]
Conditions	mass density [kg/m3]	speed of sound [m/s]
288.15 K	1039.36	1634.1
298.15 K	1030.52	1596.5
308.15 K	1021.66	1559
318.15 K	1012.76	1521.8
328.15 K	1003.83	1485

CCO [ethanol]
[1]
Conditions	mass density [kg/m3]	speed of sound [m/s]
288.15 K	793.68	1176.9
298.15 K	785.14	1142.7
308.15 K	776.48	1108.8
318.15 K	767.68	1075.2
328.15 K	758.65	1041.9

CCO [ethanol] + Cn1ccnc1
[2]
Conditions	mass density [kg/m3]	speed of sound [m/s]
288.15 K	793.68	1176.9
298.15 K	785.14	1142.7
308.15 K	776.48	1108.8
318.15 K	767.68	1075.2
328.15 K	758.65	1041.9

Conditions	excess molar enthalpy [kcal/mol]
[3]	0

CO [methanol]
[1]
Conditions	mass density [kg/m3]	speed of sound [m/s]
288.15 K	796.13	1135.7
298.15 K	786.75	1102.6
308.15 K	777.29	1069.8
318.15 K	767.71	1037.4
328.15 K	757.97	1005.3

CO [methanol] + Cn1ccnc1
[2]
Conditions	mass density [kg/m3]	speed of sound [m/s]
288.15 K	796.13	1135.7
298.15 K	786.75	1102.6
308.15 K	777.29	1069.8
318.15 K	767.71	1037.4
328.15 K	757.97	1005.3

CCCO [propan-1-ol]
[1]
Conditions	mass density [kg/m3]	speed of sound [m/s]
288.15 K	807.5	1239.5
298.15 K	799.53	1205.2
308.15 K	791.44	1171.1
318.15 K	783.18	1137.3
328.15 K	774.7	1103.8

CCCO [propan-1-ol] + Cn1ccnc1
[2]
Conditions	mass density [kg/m3]	speed of sound [m/s]
288.15 K	807.5	1239.5
298.15 K	799.53	1205.2
308.15 K	791.44	1171.1
318.15 K	783.18	1137.3
328.15 K	774.7	1103.8

Conditions	excess molar enthalpy [kcal/mol]
[3]	0

CC(C)O [propan-2-ol]
[1]
Conditions	mass density [kg/m3]	speed of sound [m/s]
288.15 K	789.18	1173.2
298.15 K	780.86	1138.4
308.15 K	772.26	1103.3
318.15 K	763.3	1067.9
328.15 K	753.91	1031.9

CC(C)O [propan-2-ol] + Cn1ccnc1
[2]
Conditions	mass density [kg/m3]	speed of sound [m/s]
288.15 K	789.18	1173.2
298.15 K	780.86	1138.4
308.15 K	772.26	1103.3
318.15 K	763.3	1067.9
328.15 K	753.91	1031.9

Conditions	excess molar enthalpy [kcal/mol]
[3]	0

O [water] + Cn1ccnc1
[2], 328.15 K
Conditions	mass density [kg/m3]	speed of sound [m/s]
–	985.71	1547.3
